# Measurements from US20250243180A1, “TARGETED PROTEIN DEGRADATION” (Monte Rosa Therapeutics AG, priority 2023, published 2025).
# Read-outs that look alike come from different tables or passages of the source.
# Columns and labels:
# CRBN-DDB1 = CRBN-DDB1 (Homo sapiens (Human), UniProt Q96SW2); experiment: Compound binding to CRBN by HTRF assay
# Summary of the method: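 Ki calculated via Cheng-Prusoff from geometric-mean EC50 values, after normalizing the HTRF ratio to lenalidomide (active) and DMSO (neutral) controls. Compounds (11 points, 1:3 steps) incubated 30 min at ambient temperature with CRBN-DDB1 2.5 nM, anti-His Tb cryptate and Cy5-thalidomide tracer 100 nM.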
# NEK7 = NEK7 (Homo sapiens (Human), UniProt Q8TDX7+Q96SW2); experiment: NEK7 NanoBiT degradation assay in Cal51 NEK7 NanoBiT cell line; format: cell-based; conditions: Cal51 NEK7 NanoBiT cells, 24 hours; for Dmax: CAL-51
# NEK7, sequence (Q8TDX7 whole entry): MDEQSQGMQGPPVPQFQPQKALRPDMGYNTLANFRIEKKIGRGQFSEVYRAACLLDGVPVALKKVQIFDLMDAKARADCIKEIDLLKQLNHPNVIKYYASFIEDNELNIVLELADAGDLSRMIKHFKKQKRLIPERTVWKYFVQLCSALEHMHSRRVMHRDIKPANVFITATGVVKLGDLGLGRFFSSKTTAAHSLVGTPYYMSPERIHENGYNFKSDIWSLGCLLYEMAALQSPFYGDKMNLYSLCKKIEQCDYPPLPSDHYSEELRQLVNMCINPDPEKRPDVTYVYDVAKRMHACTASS
# NEK7, sequence (Q96SW2 whole entry): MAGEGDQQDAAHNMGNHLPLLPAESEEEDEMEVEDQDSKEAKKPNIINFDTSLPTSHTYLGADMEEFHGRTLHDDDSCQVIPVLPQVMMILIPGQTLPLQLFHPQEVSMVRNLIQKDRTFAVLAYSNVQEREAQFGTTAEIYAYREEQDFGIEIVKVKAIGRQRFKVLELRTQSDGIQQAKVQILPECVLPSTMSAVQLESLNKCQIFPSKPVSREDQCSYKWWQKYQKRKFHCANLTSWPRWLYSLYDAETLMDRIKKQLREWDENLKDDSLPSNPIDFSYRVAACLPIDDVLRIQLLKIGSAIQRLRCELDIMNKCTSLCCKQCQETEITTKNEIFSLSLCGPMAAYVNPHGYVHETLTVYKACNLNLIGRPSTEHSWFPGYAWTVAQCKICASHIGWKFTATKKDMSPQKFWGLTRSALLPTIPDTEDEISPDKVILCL
# NEK7, sequence (Q16531 2-1140 partner): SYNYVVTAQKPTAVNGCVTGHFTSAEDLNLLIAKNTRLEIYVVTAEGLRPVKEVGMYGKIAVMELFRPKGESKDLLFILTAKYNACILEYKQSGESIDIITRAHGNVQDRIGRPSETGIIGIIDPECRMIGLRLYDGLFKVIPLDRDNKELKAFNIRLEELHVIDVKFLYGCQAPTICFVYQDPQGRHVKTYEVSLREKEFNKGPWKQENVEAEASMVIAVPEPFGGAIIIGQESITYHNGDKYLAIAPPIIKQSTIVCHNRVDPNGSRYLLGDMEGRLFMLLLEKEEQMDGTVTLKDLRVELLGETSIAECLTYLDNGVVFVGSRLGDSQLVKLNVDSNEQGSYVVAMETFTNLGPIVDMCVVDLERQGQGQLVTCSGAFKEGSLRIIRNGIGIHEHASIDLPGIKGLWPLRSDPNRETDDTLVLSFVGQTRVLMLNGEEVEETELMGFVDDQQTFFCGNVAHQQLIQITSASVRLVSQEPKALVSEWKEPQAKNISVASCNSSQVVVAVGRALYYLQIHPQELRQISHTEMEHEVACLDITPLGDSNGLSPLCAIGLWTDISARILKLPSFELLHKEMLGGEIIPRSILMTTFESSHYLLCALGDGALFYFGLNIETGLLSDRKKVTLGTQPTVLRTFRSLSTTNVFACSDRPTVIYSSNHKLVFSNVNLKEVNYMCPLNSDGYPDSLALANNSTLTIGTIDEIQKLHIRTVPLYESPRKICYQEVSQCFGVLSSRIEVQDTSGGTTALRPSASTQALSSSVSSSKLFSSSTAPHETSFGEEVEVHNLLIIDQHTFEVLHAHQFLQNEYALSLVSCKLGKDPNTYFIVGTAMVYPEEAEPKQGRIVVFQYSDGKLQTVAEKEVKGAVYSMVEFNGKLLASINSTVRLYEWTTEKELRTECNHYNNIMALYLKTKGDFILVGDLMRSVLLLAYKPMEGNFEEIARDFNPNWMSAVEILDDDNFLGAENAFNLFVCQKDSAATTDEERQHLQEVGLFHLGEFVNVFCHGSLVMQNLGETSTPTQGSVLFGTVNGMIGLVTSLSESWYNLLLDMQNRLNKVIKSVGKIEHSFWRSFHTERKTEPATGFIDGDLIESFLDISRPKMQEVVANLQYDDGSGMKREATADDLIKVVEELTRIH
# Summary of the method: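 EC50 comes from a 4-parameter fit of control-normalized luminescence. The luminescence reports HiBiT-NEK7 (endogenous knock-in) complemented by stably expressed LgBiT in Cal51 cells after 24 h compound exposure at 37 °C. Final concentrations ran 1 μM to 0.05 nM, with Endurazine substrate present in the medium throughout.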
# [1] = NEK7 degradation, read-out: NanoBiT Dmax
# [2] = NEK7 degradation, read-out: NanoBiT DC50
# CRBN-DDB1, sequence (Q96SW2 whole entry): as the sequence (Q96SW2 whole entry) above
# CRBN-DDB1, sequence (Q16531 whole entry partner): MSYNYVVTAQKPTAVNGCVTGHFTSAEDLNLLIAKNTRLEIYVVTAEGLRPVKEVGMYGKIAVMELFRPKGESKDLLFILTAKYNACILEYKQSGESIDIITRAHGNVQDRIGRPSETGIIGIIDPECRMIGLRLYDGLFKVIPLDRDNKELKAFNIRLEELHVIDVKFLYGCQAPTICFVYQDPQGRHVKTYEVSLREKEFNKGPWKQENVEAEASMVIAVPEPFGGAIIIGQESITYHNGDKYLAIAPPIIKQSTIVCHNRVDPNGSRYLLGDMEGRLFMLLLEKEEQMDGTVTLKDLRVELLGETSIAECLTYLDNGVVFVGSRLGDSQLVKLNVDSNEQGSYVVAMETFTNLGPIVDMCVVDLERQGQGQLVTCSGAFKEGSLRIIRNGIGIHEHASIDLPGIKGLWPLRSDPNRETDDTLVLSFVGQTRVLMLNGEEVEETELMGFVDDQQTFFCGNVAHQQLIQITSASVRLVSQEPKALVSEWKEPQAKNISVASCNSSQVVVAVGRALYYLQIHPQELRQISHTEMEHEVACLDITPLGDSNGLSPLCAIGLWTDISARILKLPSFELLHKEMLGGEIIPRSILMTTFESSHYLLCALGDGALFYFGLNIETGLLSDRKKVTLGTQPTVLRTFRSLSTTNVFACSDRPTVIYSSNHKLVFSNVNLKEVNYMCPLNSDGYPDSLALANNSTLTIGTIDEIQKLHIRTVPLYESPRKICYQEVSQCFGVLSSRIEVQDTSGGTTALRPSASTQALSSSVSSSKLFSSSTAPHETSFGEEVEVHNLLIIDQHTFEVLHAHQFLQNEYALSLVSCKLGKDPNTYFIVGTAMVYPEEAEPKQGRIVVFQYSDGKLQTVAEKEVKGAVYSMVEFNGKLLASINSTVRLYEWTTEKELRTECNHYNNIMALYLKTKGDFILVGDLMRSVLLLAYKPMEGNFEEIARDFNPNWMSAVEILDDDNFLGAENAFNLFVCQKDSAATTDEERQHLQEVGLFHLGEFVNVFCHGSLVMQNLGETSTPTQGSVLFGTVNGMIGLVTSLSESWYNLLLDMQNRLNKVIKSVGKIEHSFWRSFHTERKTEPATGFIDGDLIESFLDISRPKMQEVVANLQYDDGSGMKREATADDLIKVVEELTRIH
EC50 (CRBN-DDB1) [nM],"EC50 (CRBN-DDB1; HTRF class, Cereblon binding) [nM]",Dmax (NEK7; read-out: NEK7 NanoBiT Dmax) [%],Dmax (NEK7; [1]) [%],DC50 (NEK7; read-out: NEK7 NanoBiT DC50) [nM],DC50 (NEK7; [2]) [nM],Compound
120,100 to 1000,96,> 75,1,≤ 100,CC(C)(C(=O)NCc1cc(Cl)c(C2CCC(=O)NC2=O)c(Cl)c1)c1ncc(Cl)cn1 (stereo not drawn) [Compound 194]
220,100 to 1000,63,50 to 75,138,100 to 1000,CC(C)(C(=O)NCc1cc(Cl)c(C2CCC(=O)NC2=O)c(Cl)c1)c1ncc(CC(F)(F)F)cn1 (stereo not drawn) [Compound 195]
310,100 to 1000,90,> 75,9,≤ 100,CC(C)(C(=O)NCc1cc(Cl)c(C2CCC(=O)NC2=O)c(Cl)c1)c1cnc(C(F)F)cn1 (stereo not drawn) [Compound 196]
120,100 to 1000,87,> 75,13,≤ 100,Cc1coc(C(C)(C)C(=O)NCc2cc(Cl)c(C3CCC(=O)NC3=O)c(Cl)c2)n1 (stereo not drawn) [Compound 197]
130,100 to 1000,83,> 75,22,≤ 100,CC(C)(C(=O)NCc1cc(Cl)c(C2CCC(=O)NC2=O)c(Cl)c1)c1nocc1C1CC1 (stereo not drawn) [Compound 198]
140,100 to 1000,67,50 to 75,99,≤ 100,CC(C)(C(=O)NCc1cc(Cl)c(C2CCC(=O)NC2=O)c(Cl)c1)c1ncoc1C(F)(F)F (stereo not drawn) [Compound 199]
170,100 to 1000,74,50 to 75,46,≤ 100,CC(C)(C(=O)NCc1cc(Cl)c(C2CCC(=O)NC2=O)c(Cl)c1)c1nnc(C(F)F)o1 (stereo not drawn) [Compound 200]
140,100 to 1000,93,> 75,7,≤ 100,Cc1conc1C(C)(C)C(=O)NCc1cc(Cl)c(C2CCC(=O)NC2=O)c(Cl)c1 (stereo not drawn) [Compound 201]
200,100 to 1000,94,> 75,4,≤ 100,CC(C)(O)c1ccc(C(C)(C)C(=O)NCc2cc(Cl)c(C3CCC(=O)NC3=O)c(Cl)c2)nn1 (stereo not drawn) [Compound 203]
80,≤ 100,98,> 75,1,≤ 100,COc1ccc(C(C)(C)C(=O)NCc2cc(Cl)c(C3CCC(=O)NC3=O)c(Cl)c2)nn1 (stereo not drawn) [Compound 204]
110,100 to 1000,97,> 75,1,≤ 100,Cc1ccc(C(C)(C)C(=O)NCc2cc(Cl)c(C3CCC(=O)NC3=O)c(Cl)c2)cn1 (stereo not drawn) [Compound 205]
100,100 to 1000,85,> 75,18,≤ 100,CC(C)(C(=O)NCc1cc(Cl)c(C2CCC(=O)NC2=O)c(Cl)c1)c1cnc(CO)cn1 (stereo not drawn) [Compound 206]
90,≤ 100,82,> 75,19,≤ 100,CC1(c2cnc(C(C)(C)C(=O)NCc3cc(Cl)c(C4CCC(=O)NC4=O)c(Cl)c3)nc2)CC1 (stereo not drawn) [Compound 207]
170,100 to 1000,56,50 to 75,345,100 to 1000,CC(C)(C(=O)NCc1cc(Cl)c(C2CCC(=O)NC2=O)c(Cl)c1)c1nnc(C(F)(F)F)o1 (stereo not drawn) [Compound 208]
90,≤ 100,97,> 75,1,≤ 100,COc1cnc(C(C)(C)C(=O)NCc2cc(Cl)c(C3CCC(=O)NC3=O)c(Cl)c2)cn1 (stereo not drawn) [Compound 209]
460,100 to 1000,96,> 75,2,≤ 100,CC(C)(C(=O)NCc1cc(Cl)c(C2CCC(=O)NC2=O)c(Cl)c1)c1ccc(OC(F)F)nn1 (stereo not drawn) [Compound 210]

EC50 (CRBN-DDB1) [nM],"EC50 (CRBN-DDB1; HTRF class, Cereblon binding) [nM]",Dmax (NEK7; read-out: NEK7 NanoBiT Dmax) [%],Dmax (NEK7; [1]) [%],DC50 (NEK7; read-out: NEK7 NanoBiT DC50) [nM],DC50 (NEK7; [2]) [nM],Compound
900,100 to 1000,90,> 75,8,≤ 100,CC(C)(C(=O)NCc1cc(Cl)c(C2CCC(=O)NC2=O)c(Cl)c1)C1CCCCC1 (stereo not drawn) [Compound 211]
70,≤ 100,90,> 75,6,≤ 100,Cc1nc(C(C)(C)C(=O)NCc2cc(Cl)c(C3CCC(=O)NC3=O)c(Cl)c2)oc1C (stereo not drawn) [Compound 212]
80,≤ 100,78,> 75,33,≤ 100,CC(C)(C(=O)NCc1cc(Cl)c(C2CCC(=O)NC2=O)c(Cl)c1)C1CCCC1 (stereo not drawn) [Compound 213]
120,100 to 1000,65,50 to 75,118,100 to 1000,CC(C)(C(=O)NCc1cc(Cl)c(C2CCC(=O)NC2=O)c(Cl)c1)c1nccc(CO)n1 (stereo not drawn) [Compound 215]
100,≤ 100,82,> 75,21,≤ 100,COc1nc(C(C)(C)C(=O)NCc2cc(Cl)c(C3CCC(=O)NC3=O)c(Cl)c2)ncc1C (stereo not drawn) [Compound 216]
150,100 to 1000,56,50 to 75,327,100 to 1000,COCc1ccnc(C(C)(C)C(=O)NCc2cc(Cl)c(C3CCC(=O)NC3=O)c(Cl)c2)n1 (stereo not drawn) [Compound 217]
80,≤ 100,71,50 to 75,49,≤ 100,CC(C)(C(=O)NCc1cc(Cl)c(C2CCC(=O)NC2=O)c(Cl)c1)c1nc(C2CC2)no1 (stereo not drawn) [Compound 218]
80,≤ 100,72,50 to 75,47,≤ 100,CC(C)(C(=O)NCc1cc(Cl)c(C2CCC(=O)NC2=O)c(Cl)c1)c1nc(C(F)F)no1 (stereo not drawn) [Compound 219]
150,100 to 1000,91,> 75,8,≤ 100,CC(C)(C(=O)NCc1cc(Cl)c(C2CCC(=O)NC2=O)c(Cl)c1)c1nocc1C(F)(F)F (stereo not drawn) [Compound 220]
80,≤ 100,83,> 75,19,≤ 100,"COc1cnc(C(C)(C)C(=O)NCc2cc(Cl)c(C3CCC(=O)NC3=O)c(Cl)c2)nc1C (stereo not drawn) [Compound 221, N-(3,5-dichloro-4-(2,6-dioxopiperidin-3-yl)benzyl)-2-(5-methoxy-4-methylpyrimidin-2-yl)-2-methylpropanamide]"
160,100 to 1000,73,50 to 75,54,≤ 100,"COCc1cnc(C(C)(C)C(=O)NCc2cc(Cl)c(C3CCC(=O)NC3=O)c(Cl)c2)cn1 (stereo not drawn) [Compound 222, N-(3,5-dichloro-4-(2,6-dioxopiperidin-3-yl)benzyl)-2-(5-(methoxymethyl)pyrazin-2-yl)-2-methylpropanamide]"
90,≤ 100,91,> 75,8,≤ 100,"CC(C)(C(=O)NCc1cc(Cl)c(C2CCC(=O)NC2=O)c(Cl)c1)c1ccc(OC(F)(F)F)nn1 (stereo not drawn) [Compound 223, N-(3,5-dichloro-4-(2,6-dioxopiperidin-3-yl)benzyl)-2-methyl-2-(6-(trifluoromethoxy)pyridazin-3-yl)propanamide]"
130,100 to 1000,54,50 to 75,556,100 to 1000,"Cc1nnc(C2(C(=O)NCc3cc(Cl)c(C4CCC(=O)NC4=O)c(Cl)c3)CCC2)o1 (stereo not drawn) [Compound 226, N-(3,5-dichloro-4-(2,6-dioxopiperidin-3-yl)benzyl)-1-(5-methyl-1,3,4-oxadiazol-2-yl)-cyclobutane-1-carboxamide]"
110,100 to 1000,92,> 75,6,≤ 100,"COc1conc1C(C)(C)C(=O)NCc1cc(Cl)c(C2CCC(=O)NC2=O)c(Cl)c1 (stereo not drawn) [Compound 227, N-(3,5-dichloro-4-(2,6-dioxopiperidin-3-yl)benzyl)-2-(4-methoxyisoxazol-3-yl)-2-methylpropanamide]"
150,100 to 1000,85,> 75,18,≤ 100,COCc1ccc(C(C)(C)C(=O)NCc2cc(Cl)c(C3CCC(=O)NC3=O)c(Cl)c2)nn1 (stereo not drawn) [Compound 228]
120,100 to 1000,88,> 75,12,≤ 100,"CC(C)(C(=O)NCc1cc(Cl)c(C2CCC(=O)NC2=O)c(Cl)c1)c1ncc(OC(F)(F)F)cn1 (stereo not drawn) [Compound 229, N-(3,5-dichloro-4-(2,6-dioxopiperidin-3-yl)benzyl)-2-methyl-2-(5-(trifluoromethoxy)-pyrimidin-2-yl)propanamide]"
